Test results reported in patent US12234466B2, “Aspergillus microorganism carrying disruptions of multiple genes and a method of producing thereof” (KIKKOMAN CORPORATION, priority 2018, dated 2025).

Key:
[1] = tested on: AstrpC-disrupted strain; experiment: Growth on potato dextrose agar containing 5-FAA and 1 mM tryptophan; assay type: cell-based, Aspergillus sojae
Protocol: (§1) The AstrpC-disrupted strain and Aspergillus sojae NBRC4239 strain as a control were inoculated onto the plates of potato dextrose agar medium (Nissui Pharmaceutical Co., Ltd.) containing 0.04% (w/v) 5-FAA and 1 mM tryptophan, respectively. The plates were incubated at 30° C. for 4 days. […] In addition, 5-FAA (5-fluoroanthranilic acid; Tokyo Chemical Industry Co., Ltd.) was prepared to become a 10% solution using ethanol, and the solution was added to the medium to ensure that the final concentration became the above-mentioned concentration.
(§2) When the concentration of 5-FAA was changed to 0.02% (w/v), both AstrpC-disrupted and NBRC4239 strains grew on the plates.

[2] = tested on: Aspergillus sojae NBRC4239 strain; experiment: as above; assay type: cell-based
Protocol: as §1, §2

[3] = tested on: AotrpC-disrupted strain; experiment: Growth on Sabouraud Dextrose Agar containing 5-FAA and 1 mM tryptophan; assay type: cell-based, Aspergillus oryzae
Protocol: (§3) The AotrpC-disrupted strain and Aspergillus oryzae RIB40 strain as a control were inoculated onto the plates of Sabouraud Dextrose Agar medium (BD) containing 0.12% (w/v) 5-FAA and 1 mM tryptophan, respectively. The plates were incubated at 30° C. for 4 days.
(§4) When the concentration of 5-FAA was changed to 0.1% (w/v), both the AotrpC-disrupted and RIB40 strains grew on the plates.

[4] = tested on: Aspergillus oryzae RIB40 strain; experiment: as above; assay type: cell-based
Protocol: as §3, §4

[5] = 0.04% (w/v) 5-FAA, 30° C., 4 days
[6] = 0.12% (w/v) 5-FAA, 30° C., 4 days

Nc1ccc(F)cc1C(=O)O [5-FAA, 5-fluoroanthranilic acid]
growth of AstrpC-disrupted strain ([1]; 0.02% (w/v) 5-FAA): grew
growth of AstrpC-disrupted strain [1, 5]: grew
growth of NBRC4239 strain ([2]; 0.02% (w/v) 5-FAA): grew
growth of NBRC4239 strain [2, 5]: did not grow at all
growth of AotrpC-disrupted strain ([3]; 0.1% (w/v) 5-FAA): grew
growth of AotrpC-disrupted strain [3, 6]: grew
growth of RIB40 strain ([4]; 0.1% (w/v) 5-FAA): grew
growth of RIB40 strain [4, 6]: did not grow at all
